The values that follow come from EP1488698A1, “Compositions for descreasing intracellular inositol trisphosphate concentration and uses thereof” (priority 1995, dated 1997).

SMILES strings stand for the structures. Entries after “also recorded” stand apart in the source; their conditions may differ. Like-named read-outs stand apart in the source and are kept apart here.

The test system of series [1] is primary chick cortical neurons. Nature of the series: Phosphoinositide hydrolysis assay (InsP3 production) in cultured primary cortical neurons. The class given is cell-based. To be noted: Gallus gallus, Cortical neurone, 20 min, read-out: Ins-P-n. The protocol: The neurons were seeded in 24-well plastic tissue culture plates that had been coated with L-polylysine.
Receptor-stimulated and basal unstimulated hydrolysis of phosphoinositides was measured by the following procedure. […] The cells were then washed twice with 1 ml Dulbecco's phosphate-buffered saline (PBS) and 0.5 ml of PBS containing 4.5 g/L glucose was added. Sphingosine, psychosine, lysosulphatide, or lysosphingomyelin, prepared as the hydrochloride salt dissolved in water, were then added to produce the desired extracellular concentration in specific wells, […] The cells were then washed twice with 1 ml PBS, and pre-incubated for 15 minutes at 37°C with 0.5 ml PBS containing 10 mM LiCl and the compound to be tested was added. […] The tubes were vortexed thoroughly, then centrifuged at 500 x g for 5 minutes to separate the aqueous and chloroform phases. For each sample, a 1.5-ml aliquot of the upper (aqueous) phase was applied to a small column containing BioRad AG1X8 resin (formate form). Free [^3H]inositol and [^3H]glycerophosphoinositol were washed through the column with 5 ml of a solution containing 5 mM sodium borate and 60 mM sodium formate. The total phosphorylated [^3H] inositol fraction was eluted from the column for radiometric scintillation spectrometry analysis with 3 ml 1.0 M ammonium formate/0.1 M formic acid.
In addition, a 0.5 ml aliquot of the lower (chloroform) phase of each sample was analyzed radiometrically by scintillation spectrometry in order to determine the quantity of lipid-bound [^3H]myo-inositol. Estimation of phosphoinositide hydrolysis by phospholipase C is based upon the quantity of [^3H]inositol phosphates produced, and is expressed as the percentage of the latter relative to total free and componential [^3H]inositol (dpm ammonium formate + dpm chloroform fractions).

Series [2] has as its system hippocampal neurons. Nature of the series: Histological analysis of brain (cresyl violet) seven days after ICV infusion. It counts as in vivo, rats. Here is the method:
(§1) The animals used in this experiment were male F344 rats (Charles River Breeding Laboratories). The animals were housed individually, exposed to a 12-hour light-dark cycle, and allowed free access to food and water. The animals weighed approximately 250 g at the beginning of each experiment and were weighed daily. In addition, the animals were habituated to handling before each experiment.
(§2) Before administering various compounds, the animals were anesthetized with sodium pentobarbital (50 mg/kg, i.p.) and positioned in a sterotaxic instrument. A 26 gauge cannula was inserted into the cerebral ventricle at the following co-ordinates: 1.0 mm posterior to bregma, 1.5 mm lateral to the midline, and 4.0 mm below the dorsal surface of the neocortex. Cannulas were capped and fixed in place with dental cement. One week after cannulation, 10 µl of each of the treatment drugs was infused, ICV (i.e. into the ventricals of the brain), via a micropump at a rate of 10 µl/min. For this procedure, the animals were lightly restrained and unanesthetized. Following administration of the compound, the infusion cannula remained in position for one minute, after which the permanent in situ cannula was capped.
(§3) The compounds administered were obtained from a commercial supplier (Sigma Chemical Co., St. Louis, MO) and dissolved in saline prior to injection. These compounds included quisqualate (injected at doses ranging from 100 nmole/10 µl to 1 µmole/10 µl), lysocerebroside, and lysophingomyelin (which were injected at doses of 25 nmoles/10 µl to 150 nmoles/10 µl).
Seven days after the compounds were administered, animals were sacrificed by transcardial perfusion with neutralized, buffered 10% formalin-saline. Their brains were removed, post-fixed overnight in 10% formalin-saline, and sectioned along the coronal plane (into 50 µm thick sections) on a freezing microtome. The sections were stained with cresyl violet to determine the extent of cellular destruction. […]
Given that high concentrations of metabotropic receptors are located in the hippocampus, and that the hippocampus is particularly vulnerable to the effects of a variety of insults including ischemia and hypoxia, this region was examined for evidence of neuronal degeneration due to glutamate excitoxicity.

Series [3] deals with hippocampal neurons. The description is as above. It counts as in vivo. The settings on record: Quisqualate 500 µmoles ICV, rats.
Series [4] in a line: Behavioral analysis after ICV infusion (quisqualate excitotoxicity model). The class given is in vivo, rats. To be noted: rat, in vivo, icv or intrathecal, rats. The protocol: as §1, §2, §3
(§4) Pilot studies identified several specific behavioral measures that could be used to indicate excessive activation of the metabotropic receptor (see Table 3). […] The experiments that follow were based on an analysis of these behaviors over a two hour period after administration of the compounds of the invention. Behavioral observation was carried out by two trained observers, who worked independently of one another and who were blind to the experimental groups. […] Frequency and duration means were computed by subtracting pre-infusion means from post-infusion means.
(§5) The experiment began one week after ICV cannulation. […] Following the baseline observation period, animals received the first of two ICV infusions (all infusions were of a 10 µl volume that was administered over a 1 minute period). For the first five groups listed above, this consisted of saline (10 µl/minute), for the following 3 groups the infusions were psychosine at 125 nmoles, lysosphingomyelin at 125 nmoles, or lysosphingomyelin at 150 nmoles, respectively. Thirty minutes later, all animals received the second infusion which, for the first five groups listed above, consisted of saline, quisqualate at 225 nmoles, psychosine at 125 nmoles, lysosphingomyelin at 125 nmoles, and lysosphingomyelin at 150 nmoles respectively. […] Following the second infusion animals were returned to their cages, and observed continuously over the subsequent 2 hours.

Series [5] concerns male F344 rats. The series is described as above. It counts as in vivo. The protocol: as §1, §2, §3, §4, §5

Turning to `N[C@@H](Cn1oc(=O)[nH]c1=O)C(=O)O` [Quisqualate, quisqualate], in series [1], the fold induction at 100 µM worked out at 3 ± 0.05. Further, the “HISTOLOGICAL CHANGES” value in series [2] (Quisqualate 100 nmoles ICV, rats) was “none observed”; in series [2] (Quisqualate 150 nmoles ICV, rats) it was “none observed”; in series [2] (Quisqualate 225 nmoles ICV, rats, seven days after) it was “loss of CA1 pyramidal neurons in the hippocampus”; in series [2] (Quisqualate 225 nmoles ICV, rats, seven days after, listed as quisqualate), “severe loss of neurons in the hippocampus; also recorded: a considerable loss of CA1 pyramidal neurons in the hippocampus”; in series [2] (Quisqualate 250 nmoles ICV, 'as above' = loss of neurons in the piriform and entorhinal cortex, CA1 and dentate gyrus regions of the hippocampus, listed as quisqualate), “severe loss of neurons in the hippocampus”; in series [3], “loss of neurons in the piriform and entorhinal cortex. CA1 and dentate gyrus regions of the hippocampus”. Besides, the mortality in series [4] (225 nmol, Quisqualate 225 nmoles ICV, read-out: death, cases) stood at 60%; in series [4] (250 nmol, Quisqualate 250 nmoles ICV, read-out: death, cases), 75%; in series [4] (Quisqualate 1 µmoles ICV, read-out: dead, cases) it was 100%. For the same compound, in series [5] (ICV, rats, pilot testing), the “effective dose (to produce behavioral and histological changes)” value stood at 225 nmoles. Besides, the BEHAVIOR result is “-teeth chatter; also recorded: -mild scratching; also recorded: -hind leg weakness 60 minutes; also recorded: -normal placement and clasp reflex (0)” in series [5] (Quisqualate 100 nmoles ICV, rats, reflex score 0 normal, 3 severely abnormal); “-teeth chatter; also recorded: -localized twitches; also recorded: -mild hyperactivity walking in circles; also recorded: -hind leg weakness for 60 minutes; also recorded: -normal placement and clasp reflex (0)” in series [5] (Quisqualate 150 nmoles ICV, rats, reflex score 0 normal, 3 severely abnormal); “an increase in activity and teeth chattering” in series [5] (Quisqualate 150 nmoles ICV, rats, reflex score 0 normal, 3 severely abnormal, listed as quisqualate); “-teeth chatter; also recorded: -occasional mild convulsions; also recorded: -hyperactivity - circle walking; also recorded: -episodic akinesia/tonic immobility; also recorded: -hind leg weakness; also recorded: -normal limb clasp and placement reflex (0)” in series [5] (Quisqualate 200 nmoles ICV, rats, reflex score 0 normal, 3 severely abnormal); “moderate convulsions” in series [5] (Quisqualate 225 nmoles ICV, rats, reflex score 0 normal, 3 severely abnormal); “-localized spasms jerking/twitching; also recorded: -full body convulsions-severe/repeated; also recorded: -foaming at mouth; also recorded: -respiratory distress; also recorded: -abnormal placement and clasp reflex (3); also recorded: -vocalization; also recorded: -teeth chattering; also recorded: -scratching” in series [5] (Quisqualate 250 nmoles ICV, rats, reflex score 0 normal, 3 severely abnormal). Further, the BEHAVIOR entry was “severe convulsions and death” in series [5] (Quisqualate 250 nmoles ICV, rats, reflex score 0 normal, 3 severely abnormal, listed as quisqualate); “-severe repeated full body convulsions; also recorded: -severe scratching; also recorded: -severe teeth chattering; also recorded: -foaming at mouth” in series [5] (Quisqualate 1 µmoles ICV, rats); “vocalization” in series [5] (Quisqualate 500 µmoles ICV, rats). Also, the “death, cases” value in series [5] (Quisqualate 225 nmoles ICV, rats) is reported as “-death in 60% of cases”. The time to death in series [5] (Quisqualate 1 µmoles ICV, rats) was 5 to 15 min. The “duration of teeth chattering, akinesia and mobilization” value in series [5] (quisqualate alone 225 nmoles vs lysosphingolipids alone and vs quisqualate 225 nmoles + lysophingomyelin 150 nmoles, Fig. 9) is reported as “significantly (p< .01) more time engaged in these behaviors”. Further, the number of convulsions/spasms result in series [5] (quisqualate alone at 225 nmoles ICV compared to all other groups, 2 hours observation, Fig. 8) was “significantly (p.<01) more convulsions/spasms”.
